Source: patent US3954780A, “Propionic acid derivatives” (Innothera, priority 1970, dated 1976)
In brackets after ≈: the same amount, converted by molar mass. Where two headings read alike, the source gives them in different places.

Key:
[1] = tested on: isolated ileum of the guinea-pig; assay: Spasmolytic activity of atropinic type, acetylcholine chloride contracture; settings: Tyrode 33°; for EC50: Cavia porcellus, read-out: Spasmolytic activity Atropinic type DE 50 (converted)
Description: b. To show activity of atropinic type the contracturant used is acetylcholine chloride acting on the isolated ileum of the guinea-pig. […]

isolated rat duodenum = assay: Spasmolytic activity of papaverinic type, barium chloride contracture; settings: Tyrode 38°; for EC50: read-out: Spasmolytic activity Papaverinic type DE 50 (converted)
Procedure: a. To show activity of the papaverinic type, the contracturant used is barium chloride acting on the isolated rat duodenum.
The average activity of the substances studied has been effected by determining graphically their DE 30 and DE 50 these being expressed in μg for 20 ml of bath.

[2] = Acute toxicity in the mouse (DL50, method of Miller and Tainter); settings: in vivo, read-out: DL 50 (the source's name)
Description: The acute toxicity of the amine ester derivatives of β-[ benzo(b)thienyl-3]propionic acid have been studied in the mouse by intraperitoneal and oral routes, the products being administered in an isotonic solution of sodium chloride, 0.9%, or in suspension in a dilute aqueous solution of carboxymethyl cellulose.
The calculation of the DL50 has been effected according to the method of MILLER and TAINTER (MILLER. L.C., TAINTER M.L. - Proc. Soc. Exptl. Biol. Med. 1944-57-261,264).

[3] = tested on: acute oedema provoked by serotonine in the rat; assay: Anti-serotonic activity, serotonine-induced acute paw oedema; type: in vivo; settings: 30 minutes before serotonine
Procedure: This has been researched in the rat by the technique of the acute oedema localised in the metatarsal region, provoked by the injection of 0.05 ml of a 0.01% solution of serotonine (sulphate of 5-hydroxy-tryptamine-creatinine) in an isotonic solution of sodium chloride.
The plethysmometric measurements of the paw having been subjected to the injection have been effected before, and at different times after, the injection of the serotonine.
The derivatives to be studied have been administered by the oral route 30 minutes before the serotonine.

| Structure (SMILES) | EC50 [1] [mg/L] | Spasmolytic activity Atropinic type DE 30 [1] | Spasmolytic activity Papaverinic type DE 30 (isolated rat duodenum) | EC50 (isolated rat duodenum) [mg/L] | LD50 ([2]; ip) [mg/kg] | average percentage reduction in oedema after 1 hour ([3]; 30 mg/kg oral) [%] | average percentage reduction in oedema after 2 hours ([3]; 30 mg/kg oral) [%] | LD50 ([2]; v.o. (oral) route) [mg/kg] | average percentage reduction in oedema after 1 hour ([3]; 50 mg/kg oral) [%] | average percentage reduction in oedema after 2 hours ([3]; 50 mg/kg oral) [%] |
| --- | --- | --- | --- | --- | --- | --- | --- | --- | --- | --- |
| C=CCC(Cc1csc2ccccc12)C(=O)OCCN1CCCCCC1 (centres unmarked) [Compound 5] | 9 (≈ 24.2 µM) | 95 μg/20 ml of bath | 13.0 μg for 20 ml of bath | 1 (≈ 2.69 µM) | 150 ± 17 |  |  |  |  |  |
| C=CCC(Cc1csc2ccccc12)C(=O)OCCCN(C)C (centres unmarked) [Compound 6] |  |  | 9.0 μg for 20 ml of bath | 1 (≈ 3.02 µM) | ~120 |  |  |  |  |  |
| C=CCC(Cc1csc2ccccc12)C(=O)OC(C)CN1CCCC1 (centres unmarked) [Compound 11] |  |  | 4.0 μg for 20 ml of bath | 0.6 (≈ 1.68 µM) | 270 ± 59 |  |  |  |  |  |
| O=C(OCCN1CCCC1)C(Cc1cccs1)Cc1csc2ccccc12 (centres unmarked) [Compound 37] | 4 (≈ 10 µM) | 50 μg/20 ml of bath | 6.8 μg for 20 ml of bath | 0.65 (≈ 1.63 µM) | 320 ± 21 |  |  |  |  |  |
| CCN(CC)CCCOC(=O)C(Cc1cccs1)Cc1csc2ccccc12 (centres unmarked) [Compound 42] | 15 (≈ 36.1 µM) | 190 μg/20 ml of bath | 3.5 μg for 20 ml of bath | 0.85 (≈ 2.05 µM) | 240 ± 18 |  |  |  |  |  |
| O=C(OCCCN1CCCC1)C(Cc1cccs1)Cc1csc2ccccc12 (centres unmarked) [Compound 43] |  |  | 7.0 μg for 20 ml of bath | 1.25 (≈ 3.02 µM) | 160 ± 11 |  |  |  |  |  |
| O=C(OCCN1CCCC1)C(Cc1csc2ccccc12)CC1CCCO1 (centres unmarked) [Compound 49] | 1.4 (≈ 3.61 µM) | 21 μg/20 ml of bath | 1.6 μg for 20 ml of bath | 0.185 (≈ 0.477 µM) | 140 ± 9 | 17.8 | 12.6 | ~650 |  |  |
| O=C(OCCN1CCCCC1)C(Cc1csc2ccccc12)CC1CCCO1 (centres unmarked) [Compound 50] | 3.5 (≈ 8.72 µM) | 48 μg/20 ml of bath | 5.0 μg for 20 ml of bath | 0.6 (≈ 1.49 µM) | 122 ± 12 |  |  |  |  |  |
| O=C(OCCN1CCCCCC1)C(Cc1csc2ccccc12)CC1CCCO1 (centres unmarked) [Compound 51] | 4.75 (≈ 11.4 µM) | 61 μg/20 ml of bath | 3.5 μg for 20 ml of bath | 0.325 (≈ 0.782 µM) | 121 ± 10 |  |  |  |  |  |
| O=C(OCCCN1CCCCC1)C(Cc1csc2ccccc12)CC1CCCO1 (centres unmarked) [Compound 55] |  |  | 3.5 μg for 20 ml of bath | 0.375 (≈ 0.902 µM) | 85 ± 12 | 12.3 | 11.3 | ~450 | 40.7 | 39.8 |
